Measurements taken from patent US20140348857A1, “METHODS OF DIAGNOSIS AND TREATMENT OF ENDOPLASMIC RETICULUM (ER) STRESS-RELATED CONDITIONS” (MASSACHUSETTS INSTITUTE OF TECHNOLOGY, priority 2011, published 2014).
Where a SMILES comes first, the peptide text is derived from it. The star is where a group is joined. Cbz = O=C(OCc1ccccc1)*

Tests used:
ERAD machinery = assay: ERAD activity assay, CD3δ-YFP clearance by cycloheximide chase; type: cell-based, human; settings: MG132 10 μM
Excerpt: While our data strongly point to direct effects of PARP-16 on PERK and IRE1α signaling, compromised ERAD (ER-associated degradation) and/or chaperone capacities of the ER in PARP-16 knock-downs could also affect UPR activation. ERAD activity in PARP-16 knock-downs was examined by measuring clearance of CD3δ-YFP, a model substrate of ERAD machinery. CD3δ-YFP degradation kinetics were similar in PARP-16 knock-downs and controls as assayed by cycloheximide chase. […] The protein-folding capacity of the ER in PARP-16 knock-downs appear to be similar to controls as the protein concentrations of ER chaperones BiP and Calnexin, and disulfide isomerases PDI and ERp57, were similar (FIG. 9C).
ROS was evaluated using a cell permeant […] derivative of fluorescein (CM-H2DCFDA, Invitrogen), following the manufacturer's protocol (Invitrogen). […] The fluorescence intensity of oxidized ROS probe was measured using a microplate reader (Tecan). […] The ratiometric fluorescence at 340 nm/380 nm was measured every 2 min for 20 min, using a microplate reader (Tecan). […] Total RNA was extracted using RNeasy kits and QIAshredder (Qiagen), and cDNA was amplified using Quantitect reverse transcription kit (Qiagen). RT-qPCR was performed with Quantitect SYBR Green PCR kit (Qiagen), using a LightCycler 480 (Roche). mRNA levels were normalized against GAPDH mRNA.

PERK = PERK and eIF2α phosphorylation immunoblot in HeLa cells; type: cell-based, human; settings: control HeLa cells; Brefeldin A 5 μg/ml, Tunicamycin 3 μg/ml
Excerpt: To determine the effects of (ADP-ribosyl)ation on PERK and IRE1α signaling, GFP-PARP-16, GFP-PARP-16^H152Q Y182A, or GFP alone were over-expressed at similar concentrations, and PERK and IRE1α activation examined using two standard assays; (i) detection of PERK phosphorylation at Thr 981 and phosphorylation of its substrate eIF2α at Ser 51 using phospho-specific antibodies, and (ii) monitoring splicing of the IRE1α substrate XBP-1 mRNA.
To determine if PARP-16 is required for PERK or IRE1α activation, we compared activation in PARP-16 knock-downs to controls. […] Since PERK and IRE1α activity result in the time-dependent activation of downstream transcriptional programs regulated by ATF4 and spliced XBP-1, respectively, we analyzed PERK and IRE1α signaling every 4 hours over a 12-hour period in PARP-16 knock-downs and controls treated with Tunicamycin. Components of each pathway were analyzed via immunoblot or RT-qPCR analysis. While IRE1α activation, detected by phosphorylation of IRE1α, occurred 4 hours post-treatment in controls, such phosphorylation was barely detectable in PARP-16 knock-downs at any time (FIG. 7C, left). […]
Immunofluorescence analysis was performed as described in Leung et al., Mol. Cell 42: 489-499, 2011. […] Fluorescence, biochemical protease protection assays and membrane extraction assays were performed as described in Schreiber et al., Nat. […]

Molecule	CD3δ-YFP degradation (ERAD machinery)	phosphorylation of PERK and eIF2α (PERK)
CC(C)C[C@@H](C=O)NC(=O)[C@H](CC(C)C)NC(=O)[C@H](CC(C)C)NC(=O)OCc1ccccc1 [MG132] (Cbz-Leu-Leu-Leu-aldehyde)	rescued degradation	–
Tunicamycin	–	robust phosphorylation of PERK and eIF2α
C[C@H]1CCC/C=C/[C@@H]2C[C@H](O)C[C@H]2[C@H](O)/C=C/C(=O)O1 [Brefeldin A]	–	robust phosphorylation of PERK and eIF2α
